For 35 molecules, EC50 results are on record in patent publication US7939558B2, “Compounds having activity in increasing ion transport by mutant-CFTR and uses thereof” (The Regents of the University of California, priority 2004, dated 2011).

ΔF508-CFTR, sequence (P13569 with tags, fused parts or gaps DEL508-508): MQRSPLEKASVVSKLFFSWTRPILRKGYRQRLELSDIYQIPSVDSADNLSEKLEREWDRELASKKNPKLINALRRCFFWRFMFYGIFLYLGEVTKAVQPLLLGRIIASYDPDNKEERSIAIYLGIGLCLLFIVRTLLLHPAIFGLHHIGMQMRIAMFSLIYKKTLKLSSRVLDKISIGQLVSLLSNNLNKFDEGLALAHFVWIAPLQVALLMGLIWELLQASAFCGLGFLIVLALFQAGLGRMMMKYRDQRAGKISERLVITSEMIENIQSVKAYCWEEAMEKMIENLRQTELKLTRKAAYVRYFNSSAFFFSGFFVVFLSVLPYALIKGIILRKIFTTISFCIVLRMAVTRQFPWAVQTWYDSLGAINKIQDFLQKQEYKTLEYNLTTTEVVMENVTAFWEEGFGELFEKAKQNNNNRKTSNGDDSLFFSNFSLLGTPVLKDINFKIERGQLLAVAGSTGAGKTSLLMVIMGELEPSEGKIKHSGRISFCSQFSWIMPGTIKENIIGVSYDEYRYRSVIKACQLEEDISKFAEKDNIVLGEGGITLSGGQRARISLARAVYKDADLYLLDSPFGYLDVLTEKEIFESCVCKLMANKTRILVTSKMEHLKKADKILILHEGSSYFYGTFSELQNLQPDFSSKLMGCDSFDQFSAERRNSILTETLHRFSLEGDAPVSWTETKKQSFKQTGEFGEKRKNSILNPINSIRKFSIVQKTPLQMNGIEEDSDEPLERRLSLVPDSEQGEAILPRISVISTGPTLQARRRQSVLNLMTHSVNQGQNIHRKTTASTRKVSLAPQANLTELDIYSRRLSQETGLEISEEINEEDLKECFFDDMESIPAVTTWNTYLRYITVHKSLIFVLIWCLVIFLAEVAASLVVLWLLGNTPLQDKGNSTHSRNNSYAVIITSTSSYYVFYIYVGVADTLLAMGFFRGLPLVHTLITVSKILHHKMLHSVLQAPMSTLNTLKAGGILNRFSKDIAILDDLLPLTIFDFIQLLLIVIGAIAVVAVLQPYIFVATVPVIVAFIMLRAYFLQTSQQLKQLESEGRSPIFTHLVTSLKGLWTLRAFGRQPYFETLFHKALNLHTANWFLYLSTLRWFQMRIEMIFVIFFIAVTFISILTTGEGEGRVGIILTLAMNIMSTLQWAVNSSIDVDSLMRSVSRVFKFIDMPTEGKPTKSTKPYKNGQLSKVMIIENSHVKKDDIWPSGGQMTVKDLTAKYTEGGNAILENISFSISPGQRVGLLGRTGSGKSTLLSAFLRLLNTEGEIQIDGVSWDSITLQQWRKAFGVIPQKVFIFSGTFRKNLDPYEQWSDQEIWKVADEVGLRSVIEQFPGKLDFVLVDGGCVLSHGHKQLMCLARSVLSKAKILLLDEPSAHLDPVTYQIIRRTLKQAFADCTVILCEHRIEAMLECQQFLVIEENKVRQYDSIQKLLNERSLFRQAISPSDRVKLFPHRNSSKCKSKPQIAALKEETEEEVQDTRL

One test deals with ΔF508-CFTR (Homo sapiens, UniProt P13569, DEL508-508). The experiment in a line: Fluorescence (YFP-H148Q/I152L) I− influx assay of ΔF508-CFTR potentiator activity in FRT cells. Details: expressed in transfected cells. The note with it: phenylglycine containing compounds, 27° C. 24 h, forskolin 20 μM, read-out: Ka. The test is classed as cell-based. On the procedure:
Clonal populations of Fischer rat thyroid (FRT) epithelial cells stably co-expressing human ΔF508-CFTR and the high-sensitivity halide-sensing green fluorescent analog YFP-H148Q/I152L (Galietta et al., A.S. (2001) FEBS Lett. 499, 220-224) were generated by liposome transfection and limiting dilution with Zeocin/G418 selection. More than 100 clones were evaluated for high fluorescence and ΔF508-CFTR plasma membrane targeting after growth at 27° C. for 24 hours. For screening, cells were cultured on plastic in Coon's modified F12 medium supplemented with 10% fetal bovine serum, 2 mM L-glutamine, 100 U/ml penicillin, and 100 μg/ml streptomycin, and plated on black 96-well microplates (Corning-Costar 3904) at 30,000 cells/well. For short-circuit measurements cells were cultured on Snapwell permeable supports (Corning-Costar) at 500,000 cells/insert. Human nasal epithelium cells from CF patients were cultured on Snapwell inserts and allowed to differentiate in a hormone-supplemented medium (Galietta et al., Am. J. Physiol., […]). Some measurements were done using stably transfected FRT cells expressing YFP-H148Q and wildtype- or G551D-CFTR (Galietta et al., (2001) J. Biol. Chem. 276, 19723-19728). Patch clamp experiments were done on ΔF508-CFTR-expressing FRT cells plated in 35-mm Petri dishes.
Screening was carried out using a Beckman integrated system containing a 3-meter robotic arm, CO2 incubator containing microplate carousel, plate-washer, liquid handling workstation, bar code reader, delidding station, plate sealer, and two FluoStar fluorescence plate readers (Galaxy, BMG Lab Technologies), each equipped with dual syringe pumps and HQ500/20X ([…]) excitation and HQ535/30M (535±15 nm) emission filters (Chroma). Software was written in VBA (Visual Basic for Applications) to compute baseline-subtracted fluorescence slopes (giving halide influx rates).
For assay of ΔF508-CFTR potentiator activity the incubator (27° C., 90% humidity, 5% CO2/95% air) was loaded with forty-to-sixty 96-well plates containing FRT cells. After an 18-24 hour incubation plates were washed 3 times with PBS (300 μl/wash) leaving 50 μl PBS. 10 μl of PBS containing 120 μM forskolin was added, and after 5 min test compounds (0.6 μl of 0.25 mM DMSO solution) were added to each well to give 2.5 μM final compound concentrations. After 15 min, 96-well plates were transferred to a plate reader for fluorescence assay. Each well was assayed individually for I^− influx by recording fluorescence continuously (200 ms per point) for 2 seconds (baseline) and then for 12 seconds after rapid (<1 s) addition of 160 μL of isosmolar PBS in which 137 mM Cl^− was replaced by I^−. I^− influx rates were computed from initial fluorescence versus time-curve slopes (determined by 3rd order polynomial regression) after normalization for total fluorescence (background subtracted initial fluorescence). All compound plates contained negative control (DMSO vehicle alone) and positive controls (genistein, 5 μM and 50 μM). Assay analysis indicated a Z′-factor of >0.7 (Zhang et al., J. Biomol. Screen 4:67-73 (1999)).
The high-throughput screen was designed to identify compounds that activated ΔF508-CFTR when expressed at the cell plasma membrane. FRT epithelial cells co-expressing ΔF508-CFTR and a high sensitivity yellow fluorescent protein-based halide indicator were incubated at 27° C. for 24 h to permit ΔF508-CFTR plasma membrane targeting (FIG. 1, panel A). After washing, forskolin (20 μM) and test compounds (2.5 μM) were added to individual wells of 96-well plates. The I^− influx assay was carried out ˜15 min later by measurement of the time course of decreasing YFP fluorescence after creation of an inwardly-directed I^− gradient. A high concentration of forskolin was used to identify ΔF508-CFTR potentiators that may interact directly with ΔF508-CFTR rather than alter cAMP concentration. […]
Regarding `CC(=O)NCC(=O)N(C)C(C(=O)Nc1ccc2c(c1)OCCO2)c1ccccc1` (centres unmarked) [Compound P-2, 2-[(2-Acetylamino-acetyl)-methyl-amino]-N-(2,3-dihydro-benzo[1,4]dioxin-6-yl)-2-phenyl-acetamide], the EC50 worked out at 300 nM.
Still for that read-out and setting: then `COc1ccc(C(C(=O)Nc2ccc(C(C)C)cc2)N(C)C(=O)Cc2c[nH]c3ccccc23)cc1` (centres unmarked) [Compound P-3, 2-[(2-1H-Indol-3-yl-acetyl)-methyl-amino]-N-(4-isopropyl-phenyl)-2-(4-methoxy-phenyl)-acetamide], with 340 nM; and `COc1ccc(NC(=O)C(c2ccccc2)N(C)C(=O)Cc2c[nH]c3ccccc23)cc1` (centres unmarked) [Compound P-5, 2-[(2-1H-Indol-3-yl-acetyl)-methyl-amino]-N-(4-methoxy-phenyl)-2-phenyl-acetamide], with 700 nM; and `CC(C)c1ccc(NC(=O)C(NC(=O)Cc2c[nH]c3ccccc23)c2ccccc2)cc1` (centres unmarked) [Compound P-6, 2-(2-1H-Indol-3-yl-acetylamino)-N-(4-isopropyl-phenyl)-2-phenyl-acetamide], with 880 nM.
As for `Cc1ccc(C(C(=O)Nc2ccc3c(c2)OCO3)N(C)C(=O)Cc2c[nH]c3ccccc23)cc1` (centres unmarked) [Compound P-7, N-Benzo[1,3]dioxol-5-yl-2-[(2-1H-indol-3-yl-acetyl)-methyl-amino]-2-p-tolyl-acetamide], the EC50 was determined as 1330 nM.
For `COc1ccc(NC(=O)C(c2ccc(OC)cc2)N(C)C(=O)Cc2c[nH]c3ccccc23)cc1` (centres unmarked) [Compound P-8, 2-[(2-1H-Indol-3-yl-acetyl)-methyl-amino]-2,N-bis-(4-methoxy-phenyl)-acetamide], the EC50 came out at 2130 nM.
The same measure, in the same setting: then `Cc1ccc(C(NC(=O)Cc2cc3ccccc3[nH]2)C(=O)Nc2ccc3c(c2)OCCO3)cc1` (centres unmarked) [Compound P-9, N-(2,3-Dihydro-benzo[1,4]dioxin-6-yl)-2-(2-1H-indol-2-yl-acetylamino)-2-p-tolyl-acetamide], with 2330 nM; and `COc1ccc(C(C(=O)Nc2ccc3c(c2)OCCO3)N(C)C(=O)Cc2c[nH]c3ccccc23)cc1` (centres unmarked) [Compound P-10, N-(2,3-Dihydro-benzo[1,4]dioxin-6-yl)-2-[(2-1H-indol-3-yl-acetyl)-methyl-amino]-2-(4-methoxy-phenyl)-acetamide], with 2710 nM.

Still in this test, the particulars now being: sulfonamide containing compounds, 27° C. 24 h, forskolin 20 μM, read-out: Ka.
`CCN(c1ccccc1)S(=O)(=O)c1ccc2[nH]cc(C(=O)NC3CCCCCC3)c(=O)c2c1` [Compound S-2]: the EC50 was 20 nM.
Same read-out and setting: the same measure for `CCN(c1ccccc1)S(=O)(=O)c1ccc2[nH]cc(C(=O)NC3CCCCC3)c(=O)c2c1` [Compound S-4]: 30 nM.
Still for that read-out and setting: the same measure for `C=CCN(c1ccccc1)S(=O)(=O)c1ccc2[nH]cc(C(=O)NCCCC)c(=O)c2c1` [Compound S-6]: 110 nM.
Turning to `C=CCN(c1ccccc1)S(=O)(=O)c1ccc2[nH]cc(C(=O)NC3CCCCCC3)c(=O)c2c1` [Compound S-7], the EC50 is 120 nM.
On the same count and under the same terms, then `Cc1ccc(C)c(N(C)S(=O)(=O)c2ccc3[nH]cc(C(=O)NCc4ccccn4)c(=O)c3c2)c1` [Compound S-8], with 130 nM; and `CCN(c1ccccc1)S(=O)(=O)c1ccc2[nH]cc(C(=O)NCCCOC)c(=O)c2c1` [Compound S-9, 6-(Ethyl-phenyl-sulfamoyl)-4-oxo-1,4-dihydro-quinoline-3-carboxylic acid (3-methoxy-propyl)-amide], with 140 nM; and `C=CCN(c1ccccc1)S(=O)(=O)c1ccc2[nH]cc(C(=O)NCc3ccccn3)c(=O)c2c1` [Compound S-11], with 160 nM.
As to `C=CCN(c1ccccc1)S(=O)(=O)c1ccc2[nH]cc(C(=O)NCCCCCC)c(=O)c2c1` [Compound S-12], the EC50 is 190 nM.
With `CCCCNC(=O)c1c[nH]c2ccc(S(=O)(=O)N(C)c3ccccc3C)cc2c1=O` [Compound S-13], the EC50 was 200 nM.
On to `CCOc1ccccc1N(C)S(=O)(=O)c1ccc2[nH]cc(C(=O)NCC3CCCO3)c(=O)c2c1` (centres unmarked) [Compound S-14], for which the EC50 was determined as 200 nM.
Same read-out and setting: the same measure for `CCCCCNC(=O)c1c[nH]c2ccc(S(=O)(=O)N(C)c3cccc(C)c3)cc2c1=O` [Compound S-15]: 220 nM; for `CCN(c1ccccc1)S(=O)(=O)c1ccc2[nH]cc(C(=O)NCCC3=CCCCC3)c(=O)c2c1` [Compound S-16]: 240 nM; for `CCN(c1ccccc1)S(=O)(=O)c1ccc2[nH]cc(C(=O)NCC3CCCO3)c(=O)c2c1` (centres unmarked) [Compound S-17]: 240 nM.
The same measure, in the same setting: the same measure for `CCc1ccccc1N(C)S(=O)(=O)c1ccc2[nH]cc(C(=O)NCc3ccccn3)c(=O)c2c1` [Compound S-18]: 270 nM.
Still for that read-out and setting: then `COCCCNC(=O)c1c[nH]c2ccc(S(=O)(=O)N(C)c3cc(C)ccc3C)cc2c1=O` [Compound S-19], with 290 nM; and `CCCCNC(=O)c1c[nH]c2ccc(S(=O)(=O)N(C)c3c(C)cccc3C)cc2c1=O` [Compound S-20, 6-[(2,6-Dimethyl-phenyl)-methyl-sulfamoyl]-4-oxo-1,4-dihydro-quinoline-3-carboxylic acid butylamide], with 330 nM.
For `CCN(c1ccc(F)cc1)S(=O)(=O)c1ccc2[nH]cc(C(=O)NC3CCCC3)c(=O)c2c1` [Compound S-21, 6-[Ethyl-(4-fluoro-phenyl)-sulfamoyl]-4-oxo-1,4-dihydro-quinoline-3-carboxylic acid cyclopentylamide], the EC50 was determined as 330 nM.
Turning to `CCOC(CNC(=O)c1c[nH]c2ccc(S(=O)(=O)N(C)c3ccc(CC)cc3)cc2c1=O)OCC` [Compound S-22], the EC50 came out at 360 nM.
Same read-out and setting: then `COc1ccc(Cl)cc1N(C)S(=O)(=O)c1ccc2[nH]cc(C(=O)NCCC3=CCCCC3)c(=O)c2c1` [Compound S-23], with 370 nM.
`CCN(CC)S(=O)(=O)c1ccc2[nH]cc(C(=O)NCc3ccc4c(c3)OCO4)c(=O)c2c1` [Compound S-24]: the EC50 turned out to be 380 nM.
Turning to `CCC(C)NC(=O)c1c[nH]c2ccc(S(=O)(=O)N(C)c3cccc(C)c3)cc2c1=O` (centres unmarked) [Compound S-25, 6-(Methyl-m-tolyl-sulfamoyl)-4-oxo-1,4-dihydro-quinoline-3-carboxylic acid sec-butylamide], the EC50 came to 440 nM.
The same measure, in the same setting: the same measure for `CCc1ccccc1N(C)S(=O)(=O)c1ccc2[nH]cc(C(=O)NC(C)CC)c(=O)c2c1` (centres unmarked) [Compound S-26]: 440 nM; for `CCN(c1ccccc1)S(=O)(=O)c1ccc2[nH]cc(C(=O)NCc3ccco3)c(=O)c2c1` [Compound S-27]: 460 nM; for `CCN(c1cccc(C)c1)S(=O)(=O)c1ccc2[nH]cc(C(=O)NCCCOC)c(=O)c2c1` [Compound S-28]: 480 nM.
Same read-out and setting: then `Cc1cccc(N(C)S(=O)(=O)c2ccc3[nH]cc(C(=O)NCCC4=CCCCC4)c(=O)c3c2)c1` [Compound S-29, 6-(Methyl-m-tolyl-sulfamoyl)-4-oxo-1,4-dihydro-quinoline-3-carboxylic acid (2-cyclohex-1-enyl-ethyl)-amide], with 490 nM.
The same measure, in the same setting: then `CCN(c1ccc(F)cc1)S(=O)(=O)c1ccc2[nH]cc(C(=O)NCC3CCCO3)c(=O)c2c1` (centres unmarked) [Compound S-30, 6-[Ethyl-(4-fluoro-phenyl)-sulfamoyl]-4-oxo-1,4-dihydro-quinoline-3-carboxylic acid (tetrahydro-furan-2-ylmethyl)-amide], with 540 nM; and `CCCNC(=O)c1c[nH]c2ccc(S(=O)(=O)N(C)c3cccc(C)c3)cc2c1=O` [Compound S-31], with 560 nM.
